In patent US11214594B2, “Antimicrobial peptide having synergistic antibacterial effect with antibiotics on multidrug resistant bacteria, and use thereof” (priority 2016, dated 2022):
Values after ≈ are worked out from the molar mass of the structure shown. Where two headings read alike, the source gives them in different places. Where a SMILES comes first, the peptide text is derived from it. [ ]: non-standard residue; d: D form.

How the values were obtained:
MDREC 1238 = type: cell-based, Escherichia coli
In short: (§1)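 Broth microdilution in MH medium: strains diluted to 2×10^6 CFU were mixed with equal volumes of twofold serial peptide dilutions in MH medium. MIC was taken as the lowest peptide concentration preventing bacterial growth.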

P. aeruginosa = test: microbe, parasite or virus in culture; type: cell-based, Pseudomonas aeruginosa
In short: as §1

MDRPA 2002 = type: cell-based, Pseudomonas aeruginosa
In short: as §1

MDRPA 2003 = type: cell-based, Pseudomonas aeruginosa
In short: as §1

A. baumannii [1] = test: microbe, parasite or virus in culture; type: cell-based, Acinetobacter baumannii
In short: as §1

MDRAB 12035 [2] = test: microbe, parasite or virus in culture; type: cell-based, Acinetobacter baumannii
In short: as §1

MDRAB 12036 = type: cell-based, Acinetobacter baumannii
In short: as §1

S. typhimurium = test: microbe, parasite or virus in culture; type: cell-based, Salmonella typhimurium
In short: as §1

MDRST 8007 = test: Minimal inhibitory concentration (MIC), single agent; type: cell-based, Salmonella typhimurium; details: agent alone
In short: as §1

B. subtilis = test: microbe, parasite or virus in culture; type: cell-based, Bacillus subtilis
In short: as §1

S. epidermidis = test: microbe, parasite or virus in culture; type: cell-based, Staphylococcus epidermidis
In short: as §1

S. aureus = test: microbe, parasite or virus in culture; type: cell-based, Staphylococcus aureus
In short: as §1

MRSA 3114 = type: cell-based, Staphylococcus aureus; details: 3114
In short: as §1

MRSA 3126 = type: cell-based, Staphylococcus aureus; details: 3126
In short: as §1

MDREC 1229 [3] = test: MIC of antibiotic during combined treatment with antimicrobial peptide; type: cell-based, Escherichia coli
In short: (§2)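 Antibiotic MIC came from antibiotic dilutions added to bacteria (2×10^6 CFU/ml, MH medium) already combined with peptide serially diluted 2:1 from its own MIC. Swapping the roles of the two agents gave the peptide MIC.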

MDRAB 12035 [4] = test: as above; type: cell-based, Acinetobacter baumannii
In short: as §2

E. coli = type: cell-based, Escherichia coli; details: E. coli
In short: as §2

MDREC 1229 [5] = type: cell-based, Escherichia coli
In short: as §2

A. baumannii [6] = test: MIC of antimicrobial peptide during combined treatment with antibiotic; type: cell-based, Acinetobacter baumannii
In short: as §2

MDRAB 12035 [7] = test: as above; type: cell-based, Acinetobacter baumannii
In short: as §2

[8] = peptide treatment concentration 1 μg/ml
[9] = peptide treatment concentration 2 μg/ml
[10] = peptide treatment concentration 4 μg/ml
[11] = peptide treatment concentration 6 μg/ml
[12] = peptide treatment concentration 8 μg/ml
[13] = peptide treatment concentration 16 μg/ml
[14] = peptide treatment concentration 32 μg/ml
[15] = peptide treatment concentration 64 μg/ml
[16] = linezolid 64 μg/ml (Conc./MIC 1/8)
[17] = linezolid 512 μg/ml (Conc./MIC 1)
[18] = vancomycin 512 μg/ml (Conc./MIC 1/2)
[19] = vancomycin 1024 μg/ml (Conc./MIC 1)
[20] = erythromycin 4 μg/ml (Conc./MIC 1/8)
[21] = erythromycin 8 μg/ml (Conc./MIC 1/4)
[22] = erythromycin 16 μg/ml (Conc./MIC 1/2)
[23] = erythromycin 32 μg/ml (Conc./MIC 1)

## CC[C@H](C)[C@H](NC(=O)[C@H](CCCCN)NC(=O)[C@H](Cc1c[nH]c2ccccc12)NC(=O)[C@@H](N)CCCNC(=N)N)C(=O)N[C@@H](Cc1ccccc1)C(=O)N[C@@H](CCCCN)C(=O)N[C@@H](CCCCN)C(=O)N[C@H](C(=O)N[C@H](CC(C)C)C(=O)N[C@@H](CCCCN)C(=O)N[C@@H](CC(C)C)C(=O)N[C@@H](CC(C)C)C(=O)N[C@@H](Cc1c[nH]cn1)C(=O)N[C@@H](CCC(=O)O)C(=O)N[C@@H](Cc1ccccc1)C(=O)N[C@@H](CCCCN)C(=O)N[C@@H](CCCCN)C(=O)N[C@@H](Cc1ccccc1)C(N)=O)[C@@H](C)CC [PapMA-23, RWK IFK KIl KLL HEF KKF-NH2] (H-RWKIFKKI[dL]KLLHEFKKF-NH2; N-terminus assumed)
MDREC 1238
  Minimal inhibitory concentration MIC: 32 µg/mL (≈ 13.3 µM)
P. aeruginosa
  Minimal inhibitory concentration MIC: 64 µg/mL (≈ 26.6 µM)
MDRPA 2002
  Minimal inhibitory concentration MIC: 64 µg/mL (≈ 26.6 µM)
MDRPA 2003
  Minimal inhibitory concentration MIC: 64 µg/mL (≈ 26.6 µM)
A. baumannii [1]
  Minimal inhibitory concentration MIC: 32 µg/mL (≈ 13.3 µM)
  Peptide MIC, peptide alone: 32 µg/mL
A. baumannii [1]; A. baumannii and S. typhimurium
  Antibacterial activity relative to PapMA-1: at least twice as high
MDRAB 12035 [2]
  Minimal inhibitory concentration MIC: 32 µg/mL (≈ 13.3 µM)
  Peptide MIC, peptide alone: 32 µg/mL
MDRAB 12036
  Minimal inhibitory concentration MIC: 32 µg/mL (≈ 13.3 µM)
S. typhimurium
  Minimal inhibitory concentration MIC: 32 µg/mL (≈ 13.3 µM)
MDRST 8007
  Minimal inhibitory concentration MIC: 64 µg/mL (≈ 26.6 µM)
B. subtilis
  Minimal inhibitory concentration MIC: >128 µg/mL
S. epidermidis
  Minimal inhibitory concentration MIC: >128 µg/mL
S. aureus
  Minimal inhibitory concentration MIC: >128 µg/mL
MRSA 3114
  Minimal inhibitory concentration MIC: >128 µg/mL
MRSA 3126
  Minimal inhibitory concentration MIC: >128 µg/mL
MDREC 1229 [3]; [8]
  Antibiotic MIC, Erythromycin: 128 µg/mL
  Antibiotic MIC, Linezolid: >128 µg/mL
  Antibiotic MIC, Vancomycin: >128 µg/mL
MDREC 1229 [3]; [9]
  Antibiotic MIC, Erythromycin: 64 µg/mL
  Antibiotic MIC, Linezolid: 128 µg/mL
  Antibiotic MIC, Vancomycin: >128 µg/mL
MDREC 1229 [3]; [10]
  Antibiotic MIC, Erythromycin: 32 µg/mL
  Antibiotic MIC, Linezolid: 64 µg/mL
  Antibiotic MIC, Vancomycin: >128 µg/mL
MDREC 1229 [3]; [11]
  Antibiotic MIC, Erythromycin: 8 µg/mL
  Antibiotic MIC, Linezolid: 32 µg/mL
  Antibiotic MIC, Vancomycin: 128 µg/mL
MDREC 1229 [3]; [12]
  Antibiotic MIC, Erythromycin: 4 µg/mL
  Antibiotic MIC, Linezolid: 32 µg/mL
  Antibiotic MIC, Vancomycin: 32 µg/mL
MDREC 1229 [3]; [13]
  Antibiotic MIC, Erythromycin: 1 µg/mL
  Antibiotic MIC, Linezolid: 16 µg/mL
  Antibiotic MIC, Vancomycin: 16 µg/mL
MDREC 1229 [3]; [14]
  Antibiotic MIC, Erythromycin: 0 µg/mL
  Antibiotic MIC, Linezolid: 0 µg/mL
  Antibiotic MIC, Vancomycin: 0 µg/mL
MDREC 1229 [3]; [15]
  Antibiotic MIC, Erythromycin: 0 µg/mL
  Antibiotic MIC, Linezolid: 0 µg/mL
  Antibiotic MIC, Vancomycin: 0 µg/mL
MDRAB 12035 [4]; [8]
  Erythromycin MIC during combined treatment with peptide: 32 µg/mL
  Linezolid MIC during combined treatment with peptide: >128 µg/mL
  Vancomycin MIC during combined treatment with peptide: >128 µg/mL
MDRAB 12035 [4]; [9]
  Erythromycin MIC during combined treatment with peptide: 32 µg/mL
  Linezolid MIC during combined treatment with peptide: >128 µg/mL
  Vancomycin MIC during combined treatment with peptide: >128 µg/mL
MDRAB 12035 [4]; [10]
  Erythromycin MIC during combined treatment with peptide: 16 µg/mL
  Linezolid MIC during combined treatment with peptide: 64 µg/mL
  Vancomycin MIC during combined treatment with peptide: 128 µg/mL
MDRAB 12035 [4]; [11]
  Erythromycin MIC during combined treatment with peptide: 4 µg/mL
  Linezolid MIC during combined treatment with peptide: 32 µg/mL
  Vancomycin MIC during combined treatment with peptide: 32 µg/mL
MDRAB 12035 [4]; [12]
  Erythromycin MIC during combined treatment with peptide: 1 µg/mL
  Linezolid MIC during combined treatment with peptide: 16 µg/mL
  Vancomycin MIC during combined treatment with peptide: 16 µg/mL
MDRAB 12035 [4]; [13]
  Erythromycin MIC during combined treatment with peptide: 0.25 µg/mL
  Linezolid MIC during combined treatment with peptide: 4 µg/mL
  Vancomycin MIC during combined treatment with peptide: 8 µg/mL
MDRAB 12035 [4]; [14]
  Erythromycin MIC during combined treatment with peptide: 0 µg/mL
  Linezolid MIC during combined treatment with peptide: 0 µg/mL
  Vancomycin MIC during combined treatment with peptide: 0 µg/mL
MDRAB 12035 [4]; [15]
  Erythromycin MIC during combined treatment with peptide: 0 µg/mL
  Linezolid MIC during combined treatment with peptide: 0 µg/mL
  Vancomycin MIC during combined treatment with peptide: 0 µg/mL
E. coli; with Erythromycin […] (Conc./MIC 1)
  Peptide MIC: 0 µg/mL
E. coli; with Linezolid […] (Conc./MIC 1)
  Peptide MIC: 0 µg/mL
E. coli; with Vancomycin 1024 μg/ml (Conc./MIC 1)
  Peptide MIC: 0 µg/mL
MDREC 1229 [5]; erythromycin 32 μg/ml (Conc./MIC 1/8)
  Peptide MIC during treatment with antibiotic: 4 µg/mL
MDREC 1229 [5]; erythromycin 64 μg/ml (Conc./MIC 1/4)
  Peptide MIC during treatment with antibiotic: 2 µg/mL
MDREC 1229 [5]; erythromycin […] (Conc./MIC 1)
  Peptide MIC during treatment with antibiotic: 0 µg/mL
MDREC 1229 [5]; erythromycin […] (Conc./MIC 1/2)
  Peptide MIC during treatment with antibiotic: 1 µg/mL
MDREC 1229 [5]; [16]
  Peptide MIC during treatment with antibiotic: 4 µg/mL
MDREC 1229 [5]; [17]
  Peptide MIC during treatment with antibiotic: 0 µg/mL
MDREC 1229 [5]; linezolid […] (Conc./MIC 1/2)
  Peptide MIC during treatment with antibiotic: 1 µg/mL
MDREC 1229 [5]; linezolid […] (Conc./MIC 1/4)
  Peptide MIC during treatment with antibiotic: 2 µg/mL
MDREC 1229 [5]; [18]
  Peptide MIC during treatment with antibiotic: 2 µg/mL
MDREC 1229 [5]; [19]
  Peptide MIC during treatment with antibiotic: 1 µg/mL
MDREC 1229 [5]; vancomycin […] (Conc./MIC 1/4)
  Peptide MIC during treatment with antibiotic: 4 µg/mL
MDREC 1229 [5]; vancomycin […] (Conc./MIC 1/8)
  Peptide MIC during treatment with antibiotic: 8 µg/mL
A. baumannii [6]; [20]
  Peptide MIC during treatment with erythromycin: 8 µg/mL
A. baumannii [6]; [21]
  Peptide MIC during treatment with erythromycin: 4 µg/mL
A. baumannii [6]; [22]
  Peptide MIC during treatment with erythromycin: 4 µg/mL
A. baumannii [6]; [23]
  Peptide MIC during treatment with erythromycin: 0 µg/mL
A. baumannii [6]; linezolid 32 μg/ml (Conc./MIC 1/8)
  Peptide MIC during treatment with linezolid: 8 µg/mL
A. baumannii [6]; linezolid 64 μg/ml (Conc./MIC 1/4)
  Peptide MIC during treatment with linezolid: 4 µg/mL
A. baumannii [6]; linezolid […] (Conc./MIC 1)
  Peptide MIC during treatment with linezolid: 0 µg/mL
A. baumannii [6]; linezolid […] (Conc./MIC 1/2)
  Peptide MIC during treatment with linezolid: 1 µg/mL
A. baumannii [6]; [18]
  Peptide MIC during treatment with vancomycin: 0.25 µg/mL
A. baumannii [6]; [19]
  Peptide MIC during treatment with vancomycin: 0 µg/mL
A. baumannii [6]; vancomycin […] (Conc./MIC 1/4)
  Peptide MIC during treatment with vancomycin: 0.5 µg/mL
A. baumannii [6]; vancomycin […] (Conc./MIC 1/8)
  Peptide MIC during treatment with vancomycin: 4 µg/mL
MDRAB 12035 [7]; [20]
  Peptide MIC during treatment with erythromycin: 8 µg/mL
MDRAB 12035 [7]; [21]
  Peptide MIC during treatment with erythromycin: 8 µg/mL
MDRAB 12035 [7]; [22]
  Peptide MIC during treatment with erythromycin: 4 µg/mL
MDRAB 12035 [7]; [23]
  Peptide MIC during treatment with erythromycin: 0 µg/mL
MDRAB 12035 [7]; [16]
  Peptide MIC during treatment with linezolid: 4 µg/mL
MDRAB 12035 [7]; [17]
  Peptide MIC during treatment with linezolid: 0 µg/mL
MDRAB 12035 [7]; linezolid […] (Conc./MIC 1/2)
  Peptide MIC during treatment with linezolid: 1 µg/mL
MDRAB 12035 [7]; linezolid […] (Conc./MIC 1/4)
  Peptide MIC during treatment with linezolid: 4 µg/mL
MDRAB 12035 [7]; [18]
  Peptide MIC during treatment with vancomycin: 2 µg/mL
MDRAB 12035 [7]; [19]
  Peptide MIC during treatment with vancomycin: 1 µg/mL
MDRAB 12035 [7]; vancomycin […] (Conc./MIC 1/4)
  Peptide MIC during treatment with vancomycin: 4 µg/mL
MDRAB 12035 [7]; vancomycin […] (Conc./MIC 1/8)
  Peptide MIC during treatment with vancomycin: 4 µg/mL
